Data as given in the NIST ThermoML archive (doi:10.1016/j.jct.2015.08.014).
Numbers after ± are expanded uncertainties.

Test: xn = mol fraction of the nth substance listed
Conditions: 298.15 K, 100 kPa, Liquid, Alternating current cell with electrodes

CCCC[N+]1(C)CCCC1.N#CN=C=[N-] [1-butyl-1-methylpyrrolidinium dicyanamide] + O=C1CCCO1
Conditions | electrical conductivity [S/m]
Frequency=0.005 MHz, x1 = 0.3029 | 2.54 ± 0.026
Frequency=0.005 MHz, x1 = 0.3845 | 2.36 ± 0.024
Frequency=0.005 MHz, x1 = 0.4985 | 2.08 ± 0.021
Frequency=0.005 MHz, x1 = 0.6954 | 1.68 ± 0.017
Frequency=0.005 MHz, x1 = 0.9013 | 1.39 ± 0.014
Frequency=0.005 MHz, x1 = 1 | 1.317 ± 0.013
Frequency=0.005454 MHz, x1 = 0.0463 | 1.47 ± 0.026
Frequency=0.005454 MHz, x1 = 0.0987 | 2.21 ± 0.027
Frequency=0.005454 MHz, x1 = 0.1449 | 2.51 ± 0.026
Frequency=0.005454 MHz, x1 = 0.1859 | 2.67 ± 0.027
Frequency=0.005454 MHz, x1 = 0.2493 | 2.613 ± 0.026
Frequency=0.005454 MHz, x1 = 0.3029 | 2.54 ± 0.026
Frequency=0.005454 MHz, x1 = 0.3845 | 2.36 ± 0.024
Frequency=0.005454 MHz, x1 = 0.4985 | 2.08 ± 0.021
Frequency=0.005454 MHz, x1 = 0.6954 | 1.68 ± 0.017
Frequency=0.005454 MHz, x1 = 0.9013 | 1.39 ± 0.014
Frequency=0.005454 MHz, x1 = 1 | 1.317 ± 0.013
Frequency=0.006 MHz, x1 = 0.0463 | 1.47 ± 0.026
Frequency=0.006 MHz, x1 = 0.0987 | 2.21 ± 0.027
Frequency=0.006 MHz, x1 = 0.1449 | 2.51 ± 0.026
Frequency=0.006 MHz, x1 = 0.1859 | 2.67 ± 0.027
Frequency=0.006 MHz, x1 = 0.2493 | 2.613 ± 0.026
Frequency=0.006 MHz, x1 = 0.3029 | 2.54 ± 0.026
Frequency=0.006 MHz, x1 = 0.3845 | 2.36 ± 0.024
Frequency=0.006 MHz, x1 = 0.4985 | 2.08 ± 0.021
Frequency=0.006 MHz, x1 = 0.6954 | 1.68 ± 0.017
Frequency=0.006 MHz, x1 = 0.9013 | 1.39 ± 0.014
Frequency=0.006 MHz, x1 = 1 | 1.317 ± 0.013
Frequency=0.00652174 MHz, x1 = 0.0463 | 1.47 ± 0.026
Frequency=0.00652174 MHz, x1 = 0.0987 | 2.22 ± 0.027
Frequency=0.00652174 MHz, x1 = 0.1449 | 2.51 ± 0.026
Frequency=0.00652174 MHz, x1 = 0.1859 | 2.67 ± 0.027
Frequency=0.00652174 MHz, x1 = 0.2493 | 2.613 ± 0.026
Frequency=0.00652174 MHz, x1 = 0.3029 | 2.54 ± 0.026
Frequency=0.00652174 MHz, x1 = 0.3845 | 2.36 ± 0.024
Frequency=0.00652174 MHz, x1 = 0.4985 | 2.08 ± 0.021
Frequency=0.00652174 MHz, x1 = 0.6954 | 1.68 ± 0.017
Frequency=0.00652174 MHz, x1 = 0.9013 | 1.39 ± 0.014
Frequency=0.00652174 MHz, x1 = 1 | 1.317 ± 0.013
Frequency=0.00694444 MHz, x1 = 0.0463 | 1.47 ± 0.026
Frequency=0.00694444 MHz, x1 = 0.0987 | 2.22 ± 0.027
Frequency=0.00694444 MHz, x1 = 0.1449 | 2.51 ± 0.026
Frequency=0.00694444 MHz, x1 = 0.1859 | 2.67 ± 0.027
Frequency=0.00694444 MHz, x1 = 0.2493 | 2.613 ± 0.026
Frequency=0.00694444 MHz, x1 = 0.3029 | 2.54 ± 0.026
Frequency=0.00694444 MHz, x1 = 0.3845 | 2.36 ± 0.024
Frequency=0.00694444 MHz, x1 = 0.4985 | 2.08 ± 0.021
Frequency=0.00694444 MHz, x1 = 0.6954 | 1.68 ± 0.017
Frequency=0.00694444 MHz, x1 = 0.9013 | 1.39 ± 0.014
Frequency=0.00694444 MHz, x1 = 1 | 1.317 ± 0.013
Frequency=0.0075 MHz, x1 = 0.0463 | 1.47 ± 0.026
Frequency=0.0075 MHz, x1 = 0.0987 | 2.22 ± 0.027
Frequency=0.0075 MHz, x1 = 0.1449 | 2.51 ± 0.026
Frequency=0.0075 MHz, x1 = 0.1859 | 2.67 ± 0.027
Frequency=0.0075 MHz, x1 = 0.2493 | 2.613 ± 0.026
Frequency=0.0075 MHz, x1 = 0.3029 | 2.54 ± 0.026
Frequency=0.0075 MHz, x1 = 0.3845 | 2.36 ± 0.024
Frequency=0.0075 MHz, x1 = 0.4985 | 2.08 ± 0.021
Frequency=0.0075 MHz, x1 = 0.6954 | 1.68 ± 0.017
Frequency=0.0075 MHz, x1 = 0.9013 | 1.39 ± 0.014
Frequency=0.0075 MHz, x1 = 1 | 1.318 ± 0.013
Frequency=0.008 MHz, x1 = 0.0463 | 1.47 ± 0.026
Frequency=0.008 MHz, x1 = 0.0987 | 2.22 ± 0.027
Frequency=0.008 MHz, x1 = 0.1449 | 2.51 ± 0.026
Frequency=0.008 MHz, x1 = 0.1859 | 2.67 ± 0.027
Frequency=0.008 MHz, x1 = 0.2493 | 2.613 ± 0.026
Frequency=0.008 MHz, x1 = 0.3029 | 2.54 ± 0.026
Frequency=0.008 MHz, x1 = 0.3845 | 2.36 ± 0.024
Frequency=0.008 MHz, x1 = 0.4985 | 2.08 ± 0.021
Frequency=0.008 MHz, x1 = 0.6954 | 1.68 ± 0.017
Frequency=0.008 MHz, x1 = 0.9013 | 1.39 ± 0.014
Frequency=0.008 MHz, x1 = 1 | 1.318 ± 0.013
Frequency=0.00857143 MHz, x1 = 0.0463 | 1.48 ± 0.026
Frequency=0.00857143 MHz, x1 = 0.0987 | 2.22 ± 0.027
Frequency=0.00857143 MHz, x1 = 0.1449 | 2.51 ± 0.026
Frequency=0.00857143 MHz, x1 = 0.1859 | 2.67 ± 0.027
Frequency=0.00857143 MHz, x1 = 0.2493 | 2.613 ± 0.026
Frequency=0.00857143 MHz, x1 = 0.3029 | 2.54 ± 0.026
Frequency=0.00857143 MHz, x1 = 0.3845 | 2.36 ± 0.024
Frequency=0.00857143 MHz, x1 = 0.4985 | 2.08 ± 0.021
Frequency=0.00857143 MHz, x1 = 0.6954 | 1.68 ± 0.017
Frequency=0.00857143 MHz, x1 = 0.9013 | 1.39 ± 0.014
Frequency=0.00857143 MHz, x1 = 1 | 1.318 ± 0.013
Frequency=0.00892857 MHz, x1 = 0.0463 | 1.48 ± 0.026
Frequency=0.00892857 MHz, x1 = 0.0987 | 2.22 ± 0.027
Frequency=0.00892857 MHz, x1 = 0.1449 | 2.51 ± 0.026
Frequency=0.00892857 MHz, x1 = 0.1859 | 2.67 ± 0.027
Frequency=0.00892857 MHz, x1 = 0.2493 | 2.614 ± 0.026
Frequency=0.00892857 MHz, x1 = 0.3029 | 2.54 ± 0.026
Frequency=0.00892857 MHz, x1 = 0.3845 | 2.36 ± 0.024
Frequency=0.00892857 MHz, x1 = 0.4985 | 2.08 ± 0.021
Frequency=0.00892857 MHz, x1 = 0.6954 | 1.68 ± 0.017
Frequency=0.00892857 MHz, x1 = 0.9013 | 1.39 ± 0.014
Frequency=0.00892857 MHz, x1 = 1 | 1.318 ± 0.013
Frequency=0.00961538 MHz, x1 = 0.0463 | 1.48 ± 0.026
Frequency=0.00961538 MHz, x1 = 0.0987 | 2.22 ± 0.027
Frequency=0.00961538 MHz, x1 = 0.1449 | 2.51 ± 0.026
Frequency=0.00961538 MHz, x1 = 0.1859 | 2.68 ± 0.027
Frequency=0.00961538 MHz, x1 = 0.2493 | 2.614 ± 0.026
Frequency=0.00961538 MHz, x1 = 0.3029 | 2.54 ± 0.026
Frequency=0.00961538 MHz, x1 = 0.3845 | 2.36 ± 0.024
Frequency=0.00961538 MHz, x1 = 0.4985 | 2.08 ± 0.021
Frequency=0.00961538 MHz, x1 = 0.6954 | 1.68 ± 0.017
Frequency=0.00961538 MHz, x1 = 0.9013 | 1.39 ± 0.014
Frequency=0.00961538 MHz, x1 = 1 | 1.318 ± 0.013
Frequency=0.01 MHz, x1 = 0.0463 | 1.48 ± 0.026
Frequency=0.01 MHz, x1 = 0.0987 | 2.22 ± 0.027
